From the supplement of paper PMC10307832

What follows are cell lines tested with Cc1ccc(C(=O)Nc2ccc(CN3CCN(C)CC3)c(C(F)(F)F)c2)cc1C#Cc1cnc2cccnn12 [Ponatinib] + CC(=O)Nc1cccc(-n2c(=O)n(C3CC3)c(=O)c3c(Nc4ccc(I)cc4F)n(C)c(=O)c(C)c32)c1 [Trametinib] (partner 0.02 µM) (assay: relative viability (nuclei count vs DMSO), 5 days (fraction); higher = more cells survive). Settings: first compound 0.2 µM.
In short: (§1)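 Medians of duplicate plates are given as relative viability. That measure is the nuclei count in treated wells divided by the count in vehicle wells. Counts were taken on 4× images of lung cancer cell lines in 1536-well plates, 5 days after pin-tool dosing the day after seeding with one drug alone or a fixed anchor-drug dose plus five library-drug doses (not always all listed) in √10 steps.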

Question: NCI-H647 was tested. Which relative viability did it give?
Answer: 0.296

Question: LK-2 was tested. Which relative viability did it give?
Answer: 0.587

Question: Which relative viability does the source give for NCI-H2087 here?
Answer: 0.153

Question: NCI-H1648 was tested. Which relative viability did it give?
Answer: 0.346

Question: NCI-H1395 was tested. Which relative viability did it give?
Answer: 0.78

Question: With H3255 as the cell line, how does the relative viability read?
Answer: 0.554

Question: With COR-L23 as the cell line, how does the relative viability read?
Answer: 0.387

Question: With COR-L 105 as the cell line, how does the relative viability read?
Answer: 0.457

Question: For LOU-NH91, which relative viability is on record?
Answer: 0.764

Question: For ChaGo-K-1, which relative viability is on record?
Answer: 0.815

Question: For NCI-H358, which relative viability is on record?
Answer: 0.103

Question: How did the relative viability turn out when NCI-H3122 was run?
Answer: 0.209

Question: For HOP-62, which relative viability is on record?
Answer: 0.338

Question: With HCC-44 as the cell line, how does the relative viability read?
Answer: 1.06

Question: How did the relative viability turn out when NCI-H522 was run?
Answer: 0.629

Question: How did the relative viability turn out when LU99A was run?
Answer: 0.305

Question: Which relative viability does the source give for BEN here?
Answer: 0.768

Question: With SW 900 as the cell line, how does the relative viability read?
Answer: 0.873

Question: With NCI-H1793 as the cell line, how does the relative viability read?
Answer: 0.347

Question: For CAL-12T, which relative viability is on record?
Answer: 0.239

Question: Which relative viability does the source give for NCI-H2228 here?
Answer: 0.547

Question: With NCI-H1944 as the cell line, how does the relative viability read?
Answer: 0.409

Question: With NCI-H2170 as the cell line, how does the relative viability read?
Answer: 0.867

Question: For SK-MES-1, which relative viability is on record?
Answer: 0.454

The cell lines below were run with Cc1ccc(C(=O)Nc2ccc(CN3CCN(C)CC3)c(C(F)(F)F)c2)cc1C#Cc1cnc2cccnn12 [Ponatinib] + CC(C)C[C@H](NC(=O)[C@H](Cc1ccccc1)NC(=O)c1cnccn1)B(O)O [Bortezomib] (partner 0.002 µM) in the same assay as above. Settings: first compound 0.002 µM.
In short: as §1

Question: Which relative viability does the source give for NCI-H838 here?
Answer: 0.903

Question: With NCI-H1650 as the cell line, how does the relative viability read?
Answer: 0.216

Question: Which relative viability does the source give for EBC-1 here?
Answer: 0.543

Question: Which relative viability does the source give for NCI-H1703 here?
Answer: 0.296

Question: NCI-H1993 was tested. Which relative viability did it give?
Answer: 1.11

Question: PC-14 was tested. Which relative viability did it give?
Answer: 0.846

Question: For LCLC-103H, which relative viability is on record?
Answer: 1.05

Question: For NCI-H596, which relative viability is on record?
Answer: 0.88

Question: NCI-H2126 was tested. Which relative viability did it give?
Answer: 1.08

Question: For EMC-BAC-2, which relative viability is on record?
Answer: 0.967

Question: With NCI-H2085 as the cell line, how does the relative viability read?
Answer: 0.98

Question: With Calu-6 as the cell line, how does the relative viability read?
Answer: 1.01

Question: How did the relative viability turn out when HCC-366 was run?
Answer: 1.04

Question: How did the relative viability turn out when NCI-H1666 was run?
Answer: 0.736

Question: Which relative viability does the source give for NCI-H647 here?
Answer: 0.825

Question: For NCI-H2087, which relative viability is on record?
Answer: 0.57

Question: Which relative viability does the source give for H3255 here?
Answer: 0.659

Question: For COR-L23, which relative viability is on record?
Answer: 0.862

Question: Which relative viability does the source give for COR-L 105 here?
Answer: 0.819

Question: With IA-LM as the cell line, how does the relative viability read?
Answer: 0.695

Question: For LOU-NH91, which relative viability is on record?
Answer: 0.399

Question: Which relative viability does the source give for ChaGo-K-1 here?
Answer: 0.786

Question: For NCI-H3122, which relative viability is on record?
Answer: 1.02

Question: How did the relative viability turn out when HOP-62 was run?
Answer: 0.728

Question: HCC-44 was tested. Which relative viability did it give?
Answer: 0.825

Question: LU99A was tested. Which relative viability did it give?
Answer: 1.14

Question: BEN was tested. Which relative viability did it give?
Answer: 0.643

Question: NCI-H1299 was tested. Which relative viability did it give?
Answer: 1.05

Question: How did the relative viability turn out when CAL-12T was run?
Answer: 0.634

Question: How did the relative viability turn out when NCI-H2228 was run?
Answer: 0.933

Question: For NCI-H1563, which relative viability is on record?
Answer: 0.773

Question: With ABC-1 as the cell line, how does the relative viability read?
Answer: 0.347

Same assay, conditions: first compound 0.006325 µM

Question: For NCI-H838, which relative viability is on record?
Answer: 1.05

Question: NCI-H1650 was tested. Which relative viability did it give?
Answer: 0.193

Question: EBC-1 was tested. Which relative viability did it give?
Answer: 0.585

Question: With NCI-H1703 as the cell line, how does the relative viability read?
Answer: 0.261

Question: Which relative viability does the source give for NCI-H1993 here?
Answer: 1.15

Question: NCI-H2347 was tested. Which relative viability did it give?
Answer: 1.08

Question: How did the relative viability turn out when PC-14 was run?
Answer: 0.944

Question: How did the relative viability turn out when LCLC-103H was run?
Answer: 1.12

Question: For NCI-H596, which relative viability is on record?
Answer: 0.959

Question: With NCI-H2126 as the cell line, how does the relative viability read?
Answer: 1.13

Question: How did the relative viability turn out when EMC-BAC-2 was run?
Answer: 1.02

Question: How did the relative viability turn out when NCI-H2085 was run?
Answer: 1.15

Question: With Calu-6 as the cell line, how does the relative viability read?
Answer: 1.11

Question: With HCC-366 as the cell line, how does the relative viability read?
Answer: 1.13

Question: NCI-H1666 was tested. Which relative viability did it give?
Answer: 0.832

Question: How did the relative viability turn out when NCI-H647 was run?
Answer: 0.964

Question: With NCI-H2087 as the cell line, how does the relative viability read?
Answer: 0.566

Question: How did the relative viability turn out when H3255 was run?
Answer: 0.792

Question: With COR-L23 as the cell line, how does the relative viability read?
Answer: 0.875

Question: Which relative viability does the source give for COR-L 105 here?
Answer: 0.787

Question: For IA-LM, which relative viability is on record?
Answer: 0.623

Question: For LOU-NH91, which relative viability is on record?
Answer: 0.543

Question: Which relative viability does the source give for ChaGo-K-1 here?
Answer: 1.01

Question: With NCI-H3122 as the cell line, how does the relative viability read?
Answer: 1.02

Question: How did the relative viability turn out when HOP-62 was run?
Answer: 0.571

Question: For HCC-44, which relative viability is on record?
Answer: 0.804

Question: Which relative viability does the source give for LU99A here?
Answer: 1.07

Question: For BEN, which relative viability is on record?
Answer: 0.843

Question: For NCI-H1299, which relative viability is on record?
Answer: 1

Question: Which relative viability does the source give for CAL-12T here?
Answer: 0.9

Question: For NCI-H2228, which relative viability is on record?
Answer: 1.1

Question: How did the relative viability turn out when NCI-H1563 was run?
Answer: 0.847

Question: Which relative viability does the source give for ABC-1 here?
Answer: 0.286

Same assay, conditions: first compound 0.06325 µM

Question: For NCI-H838, which relative viability is on record?
Answer: 0.698

Question: How did the relative viability turn out when NCI-H1650 was run?
Answer: 0.227

Question: Which relative viability does the source give for EBC-1 here?
Answer: 0.65

Question: NCI-H1703 was tested. Which relative viability did it give?
Answer: 0.26

Question: How did the relative viability turn out when NCI-H1993 was run?
Answer: 1.4

Question: How did the relative viability turn out when NCI-H2347 was run?
Answer: 0.962

Question: How did the relative viability turn out when PC-14 was run?
Answer: 1.02

Question: How did the relative viability turn out when LCLC-103H was run?
Answer: 1.23

Question: Which relative viability does the source give for NCI-H596 here?
Answer: 0.905

Question: NCI-H2126 was tested. Which relative viability did it give?
Answer: 1.16

Question: EMC-BAC-2 was tested. Which relative viability did it give?
Answer: 1.06

Question: NCI-H2085 was tested. Which relative viability did it give?
Answer: 1.25

Question: Calu-6 was tested. Which relative viability did it give?
Answer: 0.953

Question: For HCC-366, which relative viability is on record?
Answer: 1.14

Question: NCI-H1666 was tested. Which relative viability did it give?
Answer: 0.985

Question: With NCI-H647 as the cell line, how does the relative viability read?
Answer: 1.15

Question: NCI-H2087 was tested. Which relative viability did it give?
Answer: 0.74

Question: Which relative viability does the source give for H3255 here?
Answer: 0.806

Question: COR-L23 was tested. Which relative viability did it give?
Answer: 0.818

Question: COR-L 105 was tested. Which relative viability did it give?
Answer: 1.01

Question: For IA-LM, which relative viability is on record?
Answer: 0.785

Question: How did the relative viability turn out when LOU-NH91 was run?
Answer: 0.557

Question: How did the relative viability turn out when ChaGo-K-1 was run?
Answer: 1.14

Question: NCI-H3122 was tested. Which relative viability did it give?
Answer: 1.02

Question: For HOP-62, which relative viability is on record?
Answer: 0.597

Question: With HCC-44 as the cell line, how does the relative viability read?
Answer: 1.07

Question: With LU99A as the cell line, how does the relative viability read?
Answer: 1.21

Question: BEN was tested. Which relative viability did it give?
Answer: 0.85

Question: NCI-H1299 was tested. Which relative viability did it give?
Answer: 1.06

Question: With CAL-12T as the cell line, how does the relative viability read?
Answer: 1.39

Question: With NCI-H2228 as the cell line, how does the relative viability read?
Answer: 0.755

Question: How did the relative viability turn out when NCI-H1563 was run?
Answer: 0.836

Question: Which relative viability does the source give for ABC-1 here?
Answer: 0.299

Same assay, conditions: first compound 0.2 µM

Question: For NCI-H838, which relative viability is on record?
Answer: 0.817

Question: How did the relative viability turn out when NCI-H1650 was run?
Answer: 0.222

Question: EBC-1 was tested. Which relative viability did it give?
Answer: 0.534

Question: How did the relative viability turn out when NCI-H1703 was run?
Answer: 0.143

Question: For NCI-H1993, which relative viability is on record?
Answer: 1.23

Question: For NCI-H2347, which relative viability is on record?
Answer: 0.938

Question: PC-14 was tested. Which relative viability did it give?
Answer: 0.875

Question: How did the relative viability turn out when LCLC-103H was run?
Answer: 1.25

Question: NCI-H596 was tested. Which relative viability did it give?
Answer: 0.829

Question: How did the relative viability turn out when NCI-H2126 was run?
Answer: 1.13

Question: How did the relative viability turn out when EMC-BAC-2 was run?
Answer: 1.04

Question: For NCI-H2085, which relative viability is on record?
Answer: 1.03

Question: With Calu-6 as the cell line, how does the relative viability read?
Answer: 0.856

Question: How did the relative viability turn out when HCC-366 was run?
Answer: 0.982

Question: For NCI-H1666, which relative viability is on record?
Answer: 1.11

Question: NCI-H647 was tested. Which relative viability did it give?
Answer: 0.969

Question: Which relative viability does the source give for NCI-H2087 here?
Answer: 0.688

Question: How did the relative viability turn out when H3255 was run?
Answer: 0.76

Question: How did the relative viability turn out when COR-L23 was run?
Answer: 0.8

Question: Which relative viability does the source give for COR-L 105 here?
Answer: 0.999

Question: With IA-LM as the cell line, how does the relative viability read?
Answer: 0.79

Question: With LOU-NH91 as the cell line, how does the relative viability read?
Answer: 0.568

Question: Which relative viability does the source give for ChaGo-K-1 here?
Answer: 0.968

Question: How did the relative viability turn out when NCI-H3122 was run?
Answer: 1

Question: With HOP-62 as the cell line, how does the relative viability read?
Answer: 0.701

Question: How did the relative viability turn out when HCC-44 was run?
Answer: 0.872

Question: LU99A was tested. Which relative viability did it give?
Answer: 1.24

Question: For BEN, which relative viability is on record?
Answer: 0.672

Question: For NCI-H1299, which relative viability is on record?
Answer: 0.993

Question: CAL-12T was tested. Which relative viability did it give?
Answer: 1.09

Question: With NCI-H2228 as the cell line, how does the relative viability read?
Answer: 0.893

Question: With NCI-H1563 as the cell line, how does the relative viability read?
Answer: 0.571

Question: For ABC-1, which relative viability is on record?
Answer: 0.283
